The values that follow come from ChEMBL document CHEMBL2029259, “Design, synthesis, and biological evaluation of novel conformationally constrained inhibitors targeting epidermal growth factor receptor threonine⁷⁹⁰ → methionine⁷⁹⁰ mutant” (J Med Chem, 2012).

pIC50, pKd: −log10 of the molar value. Where only a bound is given, the exact number is not on record here.

In one test the test system is NCI-H1975. In words: cells. To be noted: Homo sapiens, NCI-H1975, 72 h.
A short description of the next test: cells. To be noted: Homo sapiens, HCC827, 72 h.
Test [1] in a line: Antiproliferative activity against human HL7702 cells expressing wilt type EGFR after 72 hrs by MTS assay. The conditions noted are these: L02, 72 h. On the technique in general: Tetrazolium dyes change colour on reduction, which living cells bring about.
A further test deals with A549. In words: Antiproliferative activity against human A549 cells expressing wild type EGFR coexpressing k-Ras mutant after 72 hrs by MTS assay. The conditions noted are these: A549, 72 h.
The subject of a further test is A-431. In words: Antiproliferative activity against human A431 cells overexpressing EGFR after 72 hrs by MTS assay. To be noted: A-431, 72 h.
Test [2] has as its target T1, Epidermal growth factor receptor (Homo sapiens, UniProt P00533, L858R). In words: Inhibition of EGFR L858R mutant after 1.5 hr by FRET assay. The format is protein assay.
In test [3] the target is T2, Epidermal growth factor receptor (Homo sapiens, UniProt P00533, T790M). The test is described as follows: Inhibition of EGFR T790M mutant after 1.5 hr by FRET assay. The format is protein assay.
The target of test [4] is T3, Epidermal growth factor receptor (Homo sapiens, UniProt P00533, L858R/T790M). The test is described as follows: Inhibition of EGFR L858R/T790M mutant after 1.5 hr by FRET assay. The format is protein assay.
The target of test [5] is T4, Epidermal growth factor receptor (Homo sapiens, UniProt P00533). In words: Inhibition of EGFR after 1.5 hr by FRET assay.
Test [6] addresses T5, Epidermal growth factor receptor (Homo sapiens, UniProt P00533, L861Q). The test is described as follows: Inhibition of EGFR L861Q mutant after 1.5 hr by FRET assay. It is filed as protein assay.
Test [7] addresses T3, Epidermal growth factor receptor. The test is described as follows: Binding affinity to EGFR L858R/T790M mutant.
For test [8], the target named is T2, Epidermal growth factor receptor. The test is described as follows: Binding affinity to EGFR T790M mutant.
The target in test [9] is T4, Epidermal growth factor receptor. In words: Binding affinity to EGFR.
In test [10] the target is T5, Epidermal growth factor receptor. The test is described as follows: Binding affinity to EGFR L861Q mutant.
The target in test [11] is T1, Epidermal growth factor receptor. In words: Binding affinity to EGFR L858R mutant.

T2 sequence (P00533 25-1210 T790M limits assumed): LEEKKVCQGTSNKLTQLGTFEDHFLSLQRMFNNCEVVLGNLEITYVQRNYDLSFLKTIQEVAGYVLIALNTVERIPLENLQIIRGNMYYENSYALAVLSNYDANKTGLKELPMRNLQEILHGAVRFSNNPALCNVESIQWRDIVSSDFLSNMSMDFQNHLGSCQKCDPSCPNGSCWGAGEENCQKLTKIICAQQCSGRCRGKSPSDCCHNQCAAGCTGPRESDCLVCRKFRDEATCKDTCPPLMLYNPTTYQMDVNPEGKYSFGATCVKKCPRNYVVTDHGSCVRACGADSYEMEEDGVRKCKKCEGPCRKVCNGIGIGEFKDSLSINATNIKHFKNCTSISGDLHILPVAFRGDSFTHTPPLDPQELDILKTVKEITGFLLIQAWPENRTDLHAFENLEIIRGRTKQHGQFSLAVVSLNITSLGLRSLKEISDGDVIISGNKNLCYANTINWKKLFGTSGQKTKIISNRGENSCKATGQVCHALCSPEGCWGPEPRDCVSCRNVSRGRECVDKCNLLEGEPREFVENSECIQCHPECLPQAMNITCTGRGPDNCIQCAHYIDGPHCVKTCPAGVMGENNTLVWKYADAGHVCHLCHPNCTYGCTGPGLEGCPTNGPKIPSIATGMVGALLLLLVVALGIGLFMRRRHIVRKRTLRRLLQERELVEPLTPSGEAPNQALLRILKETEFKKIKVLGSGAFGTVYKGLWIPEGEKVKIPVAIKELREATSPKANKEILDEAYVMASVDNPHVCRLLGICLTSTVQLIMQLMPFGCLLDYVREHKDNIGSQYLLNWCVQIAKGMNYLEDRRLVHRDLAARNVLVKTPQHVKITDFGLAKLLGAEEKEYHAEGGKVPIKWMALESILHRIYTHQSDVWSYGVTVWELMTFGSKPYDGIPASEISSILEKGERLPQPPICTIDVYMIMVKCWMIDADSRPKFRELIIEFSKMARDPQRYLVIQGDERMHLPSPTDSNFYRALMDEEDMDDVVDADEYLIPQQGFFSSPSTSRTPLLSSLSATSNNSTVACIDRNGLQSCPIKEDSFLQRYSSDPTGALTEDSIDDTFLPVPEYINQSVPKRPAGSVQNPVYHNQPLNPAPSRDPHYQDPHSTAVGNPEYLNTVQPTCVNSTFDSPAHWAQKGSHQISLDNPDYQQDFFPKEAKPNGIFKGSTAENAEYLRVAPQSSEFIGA
T3 sequence (P00533 25-1210 T790M/L858R limits assumed): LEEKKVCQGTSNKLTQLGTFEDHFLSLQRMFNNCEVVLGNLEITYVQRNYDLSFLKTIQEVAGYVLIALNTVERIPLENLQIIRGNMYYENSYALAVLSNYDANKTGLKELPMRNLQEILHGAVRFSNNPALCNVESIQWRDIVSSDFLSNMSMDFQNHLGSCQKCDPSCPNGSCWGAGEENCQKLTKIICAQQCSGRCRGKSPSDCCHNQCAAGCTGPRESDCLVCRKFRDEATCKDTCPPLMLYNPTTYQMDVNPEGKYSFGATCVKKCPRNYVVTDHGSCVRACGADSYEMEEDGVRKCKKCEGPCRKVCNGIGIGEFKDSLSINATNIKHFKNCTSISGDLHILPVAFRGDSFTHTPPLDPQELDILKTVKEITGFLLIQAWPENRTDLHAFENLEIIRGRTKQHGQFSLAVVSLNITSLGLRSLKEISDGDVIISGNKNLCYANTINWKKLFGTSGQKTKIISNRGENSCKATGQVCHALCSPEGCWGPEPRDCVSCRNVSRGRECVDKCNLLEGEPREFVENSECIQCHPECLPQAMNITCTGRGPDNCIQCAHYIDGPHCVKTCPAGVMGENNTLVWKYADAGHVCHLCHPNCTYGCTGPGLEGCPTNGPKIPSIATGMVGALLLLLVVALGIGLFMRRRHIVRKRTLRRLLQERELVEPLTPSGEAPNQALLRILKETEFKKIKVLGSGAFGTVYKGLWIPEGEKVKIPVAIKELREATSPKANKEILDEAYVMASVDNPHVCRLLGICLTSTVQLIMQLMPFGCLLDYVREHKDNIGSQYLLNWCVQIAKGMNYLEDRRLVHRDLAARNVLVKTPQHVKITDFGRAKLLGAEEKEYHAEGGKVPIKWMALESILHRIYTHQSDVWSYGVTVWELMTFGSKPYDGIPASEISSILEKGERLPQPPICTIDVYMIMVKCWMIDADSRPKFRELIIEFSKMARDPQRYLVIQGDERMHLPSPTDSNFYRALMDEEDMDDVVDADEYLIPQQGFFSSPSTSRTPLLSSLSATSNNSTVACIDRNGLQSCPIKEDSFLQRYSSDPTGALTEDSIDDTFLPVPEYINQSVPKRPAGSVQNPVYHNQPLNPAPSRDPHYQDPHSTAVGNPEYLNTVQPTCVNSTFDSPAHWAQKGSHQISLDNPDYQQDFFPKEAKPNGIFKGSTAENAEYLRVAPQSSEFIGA
T1 sequence (P00533 25-1210 L858R limits assumed): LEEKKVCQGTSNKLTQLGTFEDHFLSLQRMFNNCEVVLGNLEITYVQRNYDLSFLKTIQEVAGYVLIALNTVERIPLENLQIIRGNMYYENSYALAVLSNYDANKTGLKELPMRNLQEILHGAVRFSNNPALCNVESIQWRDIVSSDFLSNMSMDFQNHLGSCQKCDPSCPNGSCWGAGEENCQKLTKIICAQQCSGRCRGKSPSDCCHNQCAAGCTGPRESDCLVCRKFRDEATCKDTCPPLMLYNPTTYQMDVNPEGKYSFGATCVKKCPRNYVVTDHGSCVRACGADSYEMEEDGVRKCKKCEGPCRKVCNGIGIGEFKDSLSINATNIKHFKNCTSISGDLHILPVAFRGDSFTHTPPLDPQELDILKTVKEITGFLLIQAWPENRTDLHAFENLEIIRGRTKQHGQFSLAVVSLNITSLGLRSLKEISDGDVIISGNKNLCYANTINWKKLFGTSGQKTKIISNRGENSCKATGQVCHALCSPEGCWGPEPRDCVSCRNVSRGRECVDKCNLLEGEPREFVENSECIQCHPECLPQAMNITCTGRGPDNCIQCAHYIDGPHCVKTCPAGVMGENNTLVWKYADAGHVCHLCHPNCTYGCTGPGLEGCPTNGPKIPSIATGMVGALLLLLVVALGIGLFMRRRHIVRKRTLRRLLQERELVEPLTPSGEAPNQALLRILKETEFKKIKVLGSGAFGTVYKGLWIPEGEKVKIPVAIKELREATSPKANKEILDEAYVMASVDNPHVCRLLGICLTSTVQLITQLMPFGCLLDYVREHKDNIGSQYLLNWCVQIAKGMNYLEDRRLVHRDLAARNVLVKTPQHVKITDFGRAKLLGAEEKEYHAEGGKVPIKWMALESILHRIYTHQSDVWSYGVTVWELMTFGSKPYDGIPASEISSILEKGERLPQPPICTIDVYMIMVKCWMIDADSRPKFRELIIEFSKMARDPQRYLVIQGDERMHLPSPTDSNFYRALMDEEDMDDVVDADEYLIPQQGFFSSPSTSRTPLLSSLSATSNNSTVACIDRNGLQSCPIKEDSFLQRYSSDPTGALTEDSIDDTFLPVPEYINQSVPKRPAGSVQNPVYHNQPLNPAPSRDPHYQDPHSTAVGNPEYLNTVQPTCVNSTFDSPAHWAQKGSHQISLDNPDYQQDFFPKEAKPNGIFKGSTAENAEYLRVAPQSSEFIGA
T4 sequence (P00533 whole entry): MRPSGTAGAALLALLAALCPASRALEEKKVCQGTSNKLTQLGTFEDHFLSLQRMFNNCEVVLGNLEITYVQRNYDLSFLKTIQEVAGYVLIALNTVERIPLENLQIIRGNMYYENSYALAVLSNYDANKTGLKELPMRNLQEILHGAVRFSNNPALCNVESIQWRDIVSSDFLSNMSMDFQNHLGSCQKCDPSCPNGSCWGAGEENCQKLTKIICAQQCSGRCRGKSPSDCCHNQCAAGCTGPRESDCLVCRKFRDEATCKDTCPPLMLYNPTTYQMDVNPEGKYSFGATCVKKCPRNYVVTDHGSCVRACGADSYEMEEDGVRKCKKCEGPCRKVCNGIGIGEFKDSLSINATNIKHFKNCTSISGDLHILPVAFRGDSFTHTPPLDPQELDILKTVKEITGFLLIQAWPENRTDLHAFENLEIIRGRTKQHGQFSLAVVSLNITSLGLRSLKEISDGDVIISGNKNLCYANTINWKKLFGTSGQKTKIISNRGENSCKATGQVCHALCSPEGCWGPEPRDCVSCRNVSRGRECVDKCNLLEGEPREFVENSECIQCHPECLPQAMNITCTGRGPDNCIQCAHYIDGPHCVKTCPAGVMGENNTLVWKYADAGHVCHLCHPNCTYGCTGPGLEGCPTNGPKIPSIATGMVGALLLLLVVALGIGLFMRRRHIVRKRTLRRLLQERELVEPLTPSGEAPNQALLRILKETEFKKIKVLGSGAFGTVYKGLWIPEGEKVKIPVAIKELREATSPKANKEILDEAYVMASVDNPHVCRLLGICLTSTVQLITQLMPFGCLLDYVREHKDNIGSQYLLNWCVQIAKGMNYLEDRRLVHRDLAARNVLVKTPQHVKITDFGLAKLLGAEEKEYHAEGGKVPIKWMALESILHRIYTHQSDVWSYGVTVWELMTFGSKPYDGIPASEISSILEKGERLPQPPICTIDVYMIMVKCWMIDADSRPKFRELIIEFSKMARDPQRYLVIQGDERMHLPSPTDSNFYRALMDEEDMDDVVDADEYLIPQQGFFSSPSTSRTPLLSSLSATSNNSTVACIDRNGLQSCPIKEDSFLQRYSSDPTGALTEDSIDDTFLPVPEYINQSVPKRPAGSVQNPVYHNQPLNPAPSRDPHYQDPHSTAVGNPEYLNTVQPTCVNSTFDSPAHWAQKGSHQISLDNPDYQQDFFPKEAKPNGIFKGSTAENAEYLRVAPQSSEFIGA

On to `C=CC(=O)Nc1cccc(Oc2nc(Nc3ccc(N4CCN(C)CC4)cc3OC)ncc2Cl)c1`, for which the pIC50 (as a rule, the negative decadic logarithm of the IC50, by convention in mol/L) in the test on NCI-H1975 is 7.32; in the test “cells”, 8.15; in [1], 5.56; with A549, 5.27; in the test on A-431, 5.86.
As for `C=CC(=O)Nc1cccc(N2C(=O)N(C)Cc3cnc(Nc4ccc(N5CCN(C)CC5)cc4OC)nc32)c1`, the pIC50 was 8.97 in [2]; 7.33 in the test with NCI-H1975; 8.18 in [3]; 8.50 in [4]; 7.74 in “cells”; less than 5.00 in test [1]. In addition, the pIC50 in test [5] was 8.94; in the test on A549, 4.80; with A-431, 6.12; in [6], 8.92.
For `C=CC(=O)Nc1cccc(N2C(=O)N(C)Cc3cnc(Nc4ccc(N5CCOCC5)cc4OC)nc32)c1`, the pIC50 was 7.99 in [2]; 6.82 in the test on NCI-H1975; 7.22 in test [3]; 7.54 in test [4]; 6.89 in the test “cells”; less than 5.00 in [1]. Further, the pIC50 is 7.79 in test [5], 4.98 in the test on A549, less than 5.00 with A-431 and 7.89 in [6].
Take `C=CC(=O)Nc1cccc(N2C(=O)N(C)Cc3cnc(Nc4ccc(N5CCN(C)CC5)cc4OCC)nc32)c1`: the pIC50 in test [2] was 8.57; in the test on NCI-H1975, 6.99; in [3], 7.90; in [4], 8.15; in “cells”, 7.85; in test [1] it was less than 5.00. Moreover, the pIC50 is 8.36 in [5], 4.99 with A549, 5.97 in the test on A-431 and 8.52 in test [6].
Turning to `CCC(=O)Nc1cccc(N2C(=O)N(C)Cc3cnc(Nc4ccc(N5CCN(C)CC5)cc4OC)nc32)c1`, the pIC50 in test [2] is less than 6.00; in the test with NCI-H1975, less than 4.70; in test [3], less than 6.00; in [4] it was less than 6.00; in test [1] it was less than 5.00; in [5], less than 6.00. Besides, the pIC50 was less than 4.52 with A549, less than 5.00 with A-431 and less than 6.00 in test [6]. Further, the pKd (in general, the negative decadic logarithm of the Kd, by convention in mol/L) in [7] is 6.07; in test [8], 6.25; in test [9], 5.85; in test [10] it was 5.96; in [11], 5.80.
Take `C=CC(=O)Nc1cccc(N2C(=O)N(C)Cc3cnc(Nc4ccc(N5CCN(C)CC5)cc4F)nc32)c1`: the pIC50 is less than 6.00 in [2]; 5.07 with NCI-H1975; less than 6.00 in test [3]; less than 6.00 in test [4]; 5.30 in “cells”; 5.14 in [1]. Besides, the pIC50 was less than 6.00 in test [5], 4.95 with A549, less than 5.00 in the test on A-431 and less than 6.00 in test [6].
On to `C=CC(=O)Nc1cccc(N2C(=O)N(C)Cc3cnc(Nc4ccc(N5CCN(C)CC5)cc4)nc32)c1`, for which the pIC50 in [2] was 9.28; in the test on NCI-H1975 it was 7.35; in [3], 8.78; in [4], 8.92; in “cells”, 7.85; in [1], 5.12. The pIC50 was 9.37 in test [5], 4.95 in the test on A549, 6.26 with A-431 and 9.25 in test [6].
With `C=CC(=O)Nc1cccc(N2C(=O)N(C)Cc3cnc(Nc4ccccc4)nc32)c1`, the pIC50 in test [2] is 7.96; with NCI-H1975, 6.77; in test [3] it was 7.34; in test [4] it was 7.55; in the test “cells”, 7.36; in test [1] it was less than 5.00. Further, the pIC50 is 8.16 in test [5], 4.74 in the test with A549, 5.16 with A-431 and 7.92 in [6].
In the case of `C=CC(=O)Nc1cccc(N2C(=O)N(c3ccc(-c4ccccc4)cc3)Cc3cnc(Nc4ccc(N5CCN(C)CC5)cc4OC)nc32)c1`, the pIC50 was 8.78 in [2]; 8.28 in [3]; 8.33 in [4]; 5.43 in [1]; 8.85 in test [5]; 5.64 with A549. This compound had a pIC50 in test [6] of 8.46.
As for `C=CC(=O)Nc1cccc(N2C(=O)N(C)Cc3cnc(Nc4ccc(N5CCN(C)CC5)cc4OC(C)C)nc32)c1`, the pIC50 in test [2] was 7.86; with NCI-H1975, 6.64; in [3], 7.40; in [4], 7.44; in “cells” it was 7.57; in test [1], less than 5.00. Further, the pIC50 is 8.06 in [5], 4.93 in the test on A549, 5.68 in the test with A-431 and 7.87 in [6].
`C=CC(=O)Nc1cccc(N2C(=O)N(C(C)C)Cc3cnc(Nc4ccc(N5CCN(C)CC5)cc4OC)nc32)c1`: the pIC50 in [2] is 9.35; with NCI-H1975, 7.24; in test [4] it was 8.35; in the test “cells”, 8.40; in test [1], less than 5.00; in [5], 9.42. For the same compound, the pIC50 in the test with A549 was 5.07; with A-431, 6.09; in [6], 9.34.
For `C=CC(=O)Nc1cccc(N2C(=O)N(C)Cc3cnc(NC)nc32)c1`, the pIC50 in test [2] is less than 6.00; in the test on NCI-H1975, 4.70; in test [3], less than 6.00; in [4], less than 6.00; in “cells”, 5.16; in test [1], less than 5.00. The pIC50 in test [5] is 6.03; in the test on A549, less than 4.70; with A-431, less than 5.00; in test [6], 6.08.
On to `C=CC(=O)Nc1cccc(N2C(=O)N(c3ccc(Oc4ccccc4)cc3)Cc3cnc(Nc4ccc(N5CCN(C)CC5)cc4OC)nc32)c1`, for which the pIC50 is 8.78 in [2]; 8.69 in test [3]; 8.45 in test [4]; less than 5.00 in test [1]; 8.82 in test [5]; 5.75 in the test on A549. Moreover, the pIC50 in [6] is 8.64.
In the case of `C=CC(=O)Nc1cccc(N2C(=O)N(C)Cc3cnc(Nc4ccc(N(C)C)cc4OC)nc32)c1`, the pIC50 in [2] is 8.31; in the test with NCI-H1975, 6.27; in test [3], 7.60; in test [4], 7.94; in “cells”, 6.13; in test [1] it was less than 5.00. For the same compound, the pIC50 in test [5] is 8.30; in the test with A549, less than 4.70; in the test on A-431, 5.25; in [6], 8.21.
Take `C=CC(=O)Nc1cc2c(Nc3ccc(F)c(Cl)c3)ncnc2cc1OCCCN1CCOCC1` [CANERTINIB]: the pIC50 in the test “cells” was 9.00.
Consider `C=CC(=O)Nc1cccc(N2C(=O)N(C)Cc3cnc(Nc4ccc(N5CCCN(C)CC5)cc4OC)nc32)c1`, for which the pIC50 in test [2] was 8.68; in the test with NCI-H1975 it was 6.14; in [3], 7.96; in [4], 8.29; in “cells” it was 7.14; in [1], less than 5.00. In addition, the negative logarithm of the IC50 (pIC50) was 8.83 in [5], less than 4.70 in the test on A549, 5.67 with A-431 and 8.56 in [6].
As for `C=CC(=O)Nc1cccc(N2C(=O)N(C)Cc3cnc(Nc4ccc(N5CCCCC5)cc4OC)nc32)c1`, the pIC50 in [2] is 7.98; in the test on NCI-H1975, 6.21; in test [3], 7.02; in test [4], 7.44; in the test “cells” it was 6.77; in test [1] it was less than 5.00. In addition, the pIC50 in test [5] is 7.53; in the test on A549, 4.92; in the test with A-431, 5.30; in test [6], 7.81.
On to `C=CC(=O)Nc1cccc(N2C(=O)N(C)Cc3cnc(Nc4ccc(N5CCC(N(C)C)CC5)cc4OC)nc32)c1`, for which the pIC50 in test [2] is 8.62; in the test with NCI-H1975 it was 6.28; in [3], 8.02; in test [4], 8.28; in “cells” it was 6.82; in [1] it was less than 5.00. The pIC50 in test [5] was 8.45; in the test with A549 it was 4.84; in the test with A-431, 5.86; in test [6] it was 8.55.
Turning to `C=CC(=O)Nc1cccc(N2C(=O)N(c3ccc(OCc4ccccc4)cc3)Cc3cnc(Nc4ccc(N5CCN(C)CC5)cc4OC)nc32)c1`, the pIC50 is 8.62 in test [2]; 8.61 in test [3]; 8.20 in test [4]; 5.55 in test [1]; 8.78 in [5]; 5.61 in the test with A549. Also, the pIC50 in [6] is 8.59.
For the compound `COc1cc(N2CCN(C)CC2)ccc1Nc1ncc2c(n1)N(c1cccc(N)c1)C(=O)N(C)C2`, the pIC50 in [2] was less than 6.00; in the test on NCI-H1975 it was less than 4.70; in test [3], less than 6.00; in test [4], less than 6.00; in “cells”, 5.31; in test [1] it was less than 5.00. For the same compound, the pIC50 in test [5] is less than 6.00; with A549, 4.95; with A-431, less than 5.00; in test [6], less than 6.00.
As to `C=CC(=O)Nc1cccc(N2C(=O)N(C)Cc3cnc(Nc4ccc(N5CCN(C)CC5)cc4C)nc32)c1`, the pIC50 in test [2] was 8.92; in the test with NCI-H1975 it was 6.70; in test [3] it was 8.03; in test [4], 8.38; in the test “cells”, 7.51; in [1], less than 5.00. The pIC50 was 8.71 in test [5], 4.92 in the test with A549, 6.00 with A-431 and 8.88 in test [6].
